Data on 1 molecule can be found in article PMC5483439, “The Effect of Pungent and Tingling Compounds from Piper nigrum L. on Background K^+ Currents” (Frontiers in Pharmacology, 2017).

For orientation: IC50 means the point on the concentration scale where inhibition reaches its midpoint.

SMILES strings stand for the structures.

The assay concerns the target T1, mKCNK3 (Mus musculus, UniProt O35111).
T1 construct: expressed in transfected cells; host or cells: Xenopus laevis oocytes injected with cRNA (plasmid pSGEM)
Kind of assay: Two-electrode voltage clamp on Xenopus oocytes expressing mKCNK3. The format is cell-based. The note with it: 1–1000 μM. An excerpt:
Human KCNK3 (TASK-1, K2P3.1) cloned into the expression vector pIRES-CD8 was a gift from Dr. Fabrice Duprat (Institut National de la Santé et de la Recherche Médicale, Antipolis, France). Human KCNK18 (hTRESK, K2P18.1), cloned into the plasmid pEXO, was a gift from Dr. P. Enyedi (Semmelweis University, Budapest, Hungary). These plasmids were linearized with the restriction enzymes BamHI and XbaI, respectively, and then used as templates for in vitro transcription. Human KCNK9 (hTASK-3, K2P9.1) cloned into the expression vector pCR4-TOPO, was purchased from Imagenes (Berlin, Germany). The plasmid was linearized with the restriction enzyme SspI, to generate a linear cDNA template for in vitro transcription. mKCNK3 was isolated from mouse heart by standard procedures and inserted into pSGEM. mKCNK9 and mKCNK18 were kindly provided by Dr. D. Bayliss (University of Virginia, Charlottesville, VA, United States) and Prof. Dr. P. Enyedi (Semmelweis University, Budapest, Hungary). Both channels were subcloned into pSGEM. The pSGEM plasmids were subsequently linearized with the restriction enzyme PacI. The capped RNAs were synthesized in the presence of the capping analog m7G(5′)ppp(5′)G using the AmpliCap-T7 Message Maker kit (Epicentre, Madison, WI, United States). The cRNA was dissolved in nuclease-free water to obtain a final concentration of 100 ng/μL. […]
A general note: In two-electrode clamp one electrode senses voltage and the other passes current.

T1 sequence (O35111 whole entry): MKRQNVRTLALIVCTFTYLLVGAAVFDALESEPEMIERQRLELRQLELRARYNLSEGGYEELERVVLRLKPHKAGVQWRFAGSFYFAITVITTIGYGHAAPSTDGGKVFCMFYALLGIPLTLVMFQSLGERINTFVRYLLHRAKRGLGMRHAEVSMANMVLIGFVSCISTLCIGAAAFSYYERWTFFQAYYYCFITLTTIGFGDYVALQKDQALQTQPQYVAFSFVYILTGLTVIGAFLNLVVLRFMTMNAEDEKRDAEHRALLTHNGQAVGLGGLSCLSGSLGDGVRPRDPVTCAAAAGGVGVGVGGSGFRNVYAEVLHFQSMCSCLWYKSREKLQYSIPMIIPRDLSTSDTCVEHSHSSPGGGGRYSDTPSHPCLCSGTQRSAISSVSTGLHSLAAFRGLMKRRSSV

With `O=C(/C=C/C=C/c1ccc2c(c1)OCO2)N1CCCCC1` [1a, piperine], the IC50 is 30 ± 2.8 µM.
